# Results as given in patent US20200253979A1, “THERAPEUTIC METHODS RELATING TO HSP90 INHIBITORS” (AI Therapeutics, Inc., priority 2017, published 2020).
# Legend:
# [1] = system: ML2 cells; test: CellTiter-Glo cell viability (single agent and combination)
# Protocol: To determine whether MPC-0767 is efficacious against non-FLT3-ITD AML cells, we tested a panel of FLT3-wild type (FLT3-WT) AML cell lines and primary AML blasts for sensitivity to MPC-0767. Cells were treated with MPC-0767 for 72 hours before determining cell viability using the CellTiter-Glo® assay. […] To test whether the combination of MPC-0767 was synergistic with ATO, we tested a panel of AML cell lines. The cell lines include those harboring FLT3-ITD (MOLM-13, MOLM-14 and MV-4-11) or FLT3 WT (ME-1, THP-1, OCI-AML-2, HL60, NOMO-1, TUR and ML-2).
# [2] = system: phospho-S6 in MV-4-11 cells; test: Phospho-S6 by flow cytometry; format: cell-based; details: MV-4-11, 1 μM, 24 hours
# Protocol: (§1) To determine whether MPC-0767 can promote the degradation of FLT3-ITD and abolish downstream signaling, MV-4-11 and MOLM-13 cells were treated with vehicle or MPC-0767 (1 μM) for 24 hours. Cells were harvested for flow cytometry to assess cell surface FLT3 protein abundance. In addition, the measurement of a key phosphorylation site of S6 (phospho-S6) was used as a marker for oncogenic FLT3-ITD signaling (Zimmerman et al., Blood. 2013 122(22): 3607-3615). Indeed, in both MV-4-11 and MOLM-13 cells treated with MPC-0767 there was a >65% reduction in cell surface FLT3 (FIGS. 10A and 10B, respectively) and >70% reduction in phospho-S6 (FIGS. 10C and 10D, respectively).
# [3] = system: HL60 (HL-60) cells; test: CellTiter-Glo cell viability (single agent and combination); format: cell-based; details: HL60, 72 h
# [4] = system: BaF3 cells harboring FLT3-ITD F691L; test: CellTiter-Glo cell viability; format: cell-based, murine; details: Mus musculus; BaF3 FLT3-ITD-F691L, 72 hours
# Protocol: EC50 values were calculated using equation 1 (as described above).
# [5] = system: MOLM-13 FLT3-ITD AML cell line; test: Systemic survival xenograft study, MPC-0767 with venetoclax; details: MPC-0767 100-60 mg/kg QD×24, vs vehicle
# Protocol: A systemic survival xenograft study was performed using the MOLM-13 FLT3-ITD harboring AML cell line.
# Before tumor cell inoculation, NOD/SCID mice were pre-treated for 2 days with a daily intraperitoneal injection of 100 mg/kg cyclophosphamide to facilitate engraftment of the human MOLM-13 tumor cells. After the injection of cyclophosphamide, the animals were allowed to recover for 24 hours prior to inoculation with human MOLM-13 tumor cells. Each mouse was then inoculated with 1×10^7 MOLM-13 cells in 100 μL PBS via intravenous tail vein injection. Mice were next randomized into 4 groups of 6. […] Viability and body weight loss were monitored daily.
# [6] = cited from earlier work
# [7] = system: MOLM-13-R-PKC412 (midostaurin-resistant) cells; test: CellTiter-Glo cell viability; format: cell-based, human
# From the text: (§2) In the clinic, tyrosine kinase inhibitors that target FLT3 initially show positive responses, but patients inevitably relapse due to the development of drug-resistance through various mechanisms, as discussed above.
# [8] = system: MOLM-13-LUC cells; test: CellTiter-Glo cell viability; format: cell-based; details: Homo sapiens, 72 hours
# From the text: as §2
# [9] = system: THP1 (THP-1) cells; test: CellTiter-Glo cell viability (single agent and combination); format: cell-based; details: THP1, 72 h
# [10] = system: PD-L1 on tumor infiltrating leukocytes (CD45+, CD3−); test: PD-L1 on tumor infiltrating leukocytes in MC38 tumors; format: in vivo, mouse; details: 150 mg/kg QD×7
# Protocol: To test if MPC-0767 may induce an anti-tumor immune response in addition to direct cytotoxic activity, down regulation of PD-Ll and the effector/regulatory T-cell ratio was measured in the same MC38 syngeneic model. On day 21, when the average tumor volume was 372 mm^3 in size, a second group of mice (n=6) was treated with 150 mg/kg MPC-0767 QD×7. One day post the last dose (day 28 post inoculation) tumors were harvested from the vehicle and 150 mg/kg MPC-0767 QD×7 group. Tumor infiltrating leukocytes (CD45^+, CD3^−) within the dissociated tumors were analyzed for PD-L1 expression by flow cytometry.
# [11] = system: ME1 (ME-1) cells; test: CellTiter-Glo cell viability (single agent and combination); format: cell-based; details: ME1, 72 h
# [12] = system: mutant EGFR on the cell surface of PC-9 cells; test: Cell surface EGFR by flow cytometry; format: cell-based; details: PC-9, 1 μM, 24 hours
# Protocol: (§3) FIG. 3A-B: MPC-0767 reduces cell surface EGFR expression in H1975 cells (A) and PC-9 cells (B). Cells were treated with MPC-0767 (1 μM) for 24 hours before being harvested and cell expression of EGFR determined by flow cytometry.
# (§4) These findings confirm that MPC-0767 targets and degrades EGFR in lung cancer cell lines.
# [13] = system: mutant EGFR on the cell surface of H1975 cells; test: Cell surface EGFR by flow cytometry; format: cell-based; details: H1975, 1 μM, 24 hours
# Protocol: as §3, §4
# [14] = system: MV-4-11 cells (FLT3-ITD); test: CellTiter-Glo cell viability (single agent and combination); format: cell-based; details: MV-4-11, MPC-0767 1 μM, 72 hours
# Protocol: Three cell lines which harbor FLT3-ITD were used for the drug combination studies (MV-4-11, MOLM-13, and MOLM-14).
# Cells were treated with the drugs (single agent or combination) for 72 hours. Drug combination activity was determined by first measuring cell viability with CellTiter-Glo®, followed by the calculation of the EC50 corresponding to single agent activity, using the R DRC package (R Core Team, 2017). The combination index (CI) values were computed using the Chou-Talalay method (Chou T, Cancer Research., 2010 70(2): 440-6.), based on the viability of each drug alone and in combination, across all concentrations tested. In brief, CI was defined as: […]
# Loss of function mutations of KDM6A are observed in FLT3-ITD AML (Garg et al., 2015 Blood 126 (22):2491-501). […] To therapeutically exploit this finding, we hypothesized that inhibiting EZH2, the histone H3K27 methyltransferase that functionally opposes KDM6A, would enhance sensitivity to MPC-0767. To test this hypothesis, a FLT3-ITD cell line (MV-4-11) was used and treated with either of the two clinical stage EZH2 inhibitors, EPZ-6438 and CPI-1205, at 8 different concentrations for 4 days. Following this time, cells were counted, reseeded and treated with 8 concentrations of EZH2 inhibitor alone, 8 concentrations of MPC-0767 alone, or the combination of the two (64 total combinations).
# [15] = system: phospho-S6 in MOLM-13 cells; test: Phospho-S6 by flow cytometry; format: cell-based, human; details: 24 hours
# Protocol: as §1
# (§5) We next explored whether the synergistic activity of MPC-0767 and ATO was due to a more complete abrogation of FLT3-ITD oncogenic signaling. […] After this time cells were harvested for the assessment of cell surface FLT3 expression by flow cytometry. To additionally measure the effects of abrogating FLT3, we assessed phospho-ERK (pERK) and phospho-S6 (pS6), as these are two known downstream effectors.
# [16] = system: phospho-ERK (pERK) in MOLM-13 cells; test: Phospho-ERK level; format: cell-based, human; details: MPC-0767 800 nM, ATO 625 nM or combination, 24 hours
# From the text: as §5
structure (smiles),measurement,setting,value
C[C@H](N)C(=O)O[C@@H](C)C(=O)N1CCC(CCn2c(Sc3cc4c(cc3Br)OCO4)nc3c(N)ncnc32)CC1 [MPC-0767],EC50,"[1]; Homo sapiens, ML-2, 72 h",1.03 µM
same,MPC-0767 Sensitivity,"[1]; ML2, 72 h",Resistant (EC50 values above 1 μM considered resistant)
same,reduction in phospho-S6,[2],> 70%
same,MPC-0767 Sensitivity,[3],Resistant (EC50 values above 1 μM considered resistant)
same,EC50,"[3]; Homo sapiens, HL-60",1.96 µM
same,EC50,[4],0.391 µM
same,increase in median survival,[5],3.5 days
same,aqueous solubility,[6],improved aqueous solubility
same,EC50,"[7]; Homo sapiens, MOLM-13-R-PKC412, 72 hours",0.727 µM
same,"fold difference in EC50, midostaurin-resistant vs control cells",[7]; MOLM-13-R-PKC412 vs MOLM-13-LUC,less than 1.5 fold
same,EC50,[8],0.496 µM
same,EC50,"[9]; Homo sapiens, THP-1",> 10 µM
same,MPC-0767 Sensitivity,[9],Resistant (EC50 values above 1 μM considered resistant)
same,PD-L1 expression on tumor infiltrating leukocytes,[10],significant reduction of PD-L1
same,MPC-0767 Sensitivity,[11],Resistant (EC50 values above 1 μM considered resistant)
same,EC50,[11]; ME-1,3.43 µM
same,mutant EGFR on the cell surface,[12],decreased
same,mutant EGFR on the cell surface,[13],decreased
same,viability of KDM6A sgRNA cells vs non-targeting sgRNA,[14],conferred resistance to MPC-0767
same,reduction in phospho-S6,"[15]; MOLM-13, 1 μM",> 70%
same,pS6 level,"[15]; MOLM-13, MPC-0767 800 nM, ATO 625 nM or combination",reduced
same,pERK level,[16],mildly reduced
